We go through one substance from patent publication US20170267986A1, “GENERATION OF MANNOSE-6-PHOSPHATE CONTAINING RECOMBINANT ALPHA-N-ACETYL GLUCOSAMINIDASE” (SHIRE HUMAN GENETIC THERAPIES, INC., priority 2014, published 2017).

What all share (assay type): biochemical
Assay [1] has as its target T1, rhNaglu (Homo sapiens, UniProt P54802).
T1 construct: The N-terminal 23 amino acids are cleaved as the precursor protein enters the endoplasmic reticulum, resulting in a mature form; made in house; host or cells: human fibrosarcoma HT1080 cell clone over-expressing rhNaglu
T1 sequence (P54802 24-743): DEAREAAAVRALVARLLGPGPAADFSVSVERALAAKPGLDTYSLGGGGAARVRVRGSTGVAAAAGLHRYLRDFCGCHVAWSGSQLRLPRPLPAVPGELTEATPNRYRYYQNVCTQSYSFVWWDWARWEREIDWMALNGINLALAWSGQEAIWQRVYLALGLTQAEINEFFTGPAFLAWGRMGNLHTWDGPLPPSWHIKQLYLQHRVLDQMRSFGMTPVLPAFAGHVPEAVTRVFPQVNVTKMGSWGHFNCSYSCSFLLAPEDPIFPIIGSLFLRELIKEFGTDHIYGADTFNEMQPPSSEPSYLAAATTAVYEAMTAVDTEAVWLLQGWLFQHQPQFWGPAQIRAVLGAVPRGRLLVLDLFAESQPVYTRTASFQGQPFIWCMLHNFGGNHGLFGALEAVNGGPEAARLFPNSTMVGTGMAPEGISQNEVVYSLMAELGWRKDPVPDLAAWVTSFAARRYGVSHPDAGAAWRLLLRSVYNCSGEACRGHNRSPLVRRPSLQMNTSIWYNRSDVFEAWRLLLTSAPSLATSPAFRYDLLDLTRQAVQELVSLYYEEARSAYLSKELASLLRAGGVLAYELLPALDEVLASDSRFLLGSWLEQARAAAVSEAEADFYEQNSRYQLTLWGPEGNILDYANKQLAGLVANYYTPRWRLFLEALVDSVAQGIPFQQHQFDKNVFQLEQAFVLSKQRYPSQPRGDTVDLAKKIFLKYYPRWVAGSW
Kind of assay: Isothermal titration calorimetry (ITC) of UDP-GlcNAc hydrolysis by rhNaglu. The note with it: preliminary ITC data. The text has this: The reduction of the UDP-GlcNAc substrate in the samples containing rhNaglu (FIG. 3A) and the formation of the reaction product GlcNAc in the samples containing rhNaglu (FIG. 3B) was apparent. The reductions of UDP-GlcNAc and the formation of GlcNAc were dependent on the initial concentration of UDP-GlcNAc in the reaction sample.

Assay [2] concerns the target T1, rhNaglu. The assay is described as follows: Naglu activity assay with various inhibitors (4MU-GlcNAc fluorescent substrate). The note with it: added at 0.0625, 0.25, 1, 4 and 8 mM; 37° C., 1 hour, pH 4.5. Here is the method:
A 10 mM stock of Naglu activity substrate solution was prepared by dissolving 5 mg of substrate, i.e., 4-methylumbelliferyl-N-acetyl-α-D-glucosaminide, in 250 μl of 100% DMSO. Naglu activity assay reaction buffer (0.1 M sodium acetate, 0.5 mg/ml BSA, pH 4.5) was then added to bring the volume up to 1318 μl. This 10 mM substrate stock solution was then diluted 10 fold with reaction buffer to make the final 1 mM substrate solution.
Samples and controls were pre-diluted in reaction buffer. 10 μl of each pre-diluted sample/control were applied in duplicate wells on a black clear bottom 96 well plate. 75 μl of 1 mM substrate solution containing various concentrations of inhibitors were added to each well. The plates were sealed with plate sealer and wrapped with aluminum foil. The plates were then placed in a Boekel Jitterbug Microplate Incubator Shaker (Cole-Parmer, Vernon Hills, Ill.) and shaken (setting at #1) at 37° C. for 1 hour. 200 μl of Stop Buffer (0.2 M Glycine, pH 10.7) were then added to all of the wells and fluorescence emission (excitation/emission at 360 nm/460 nm, respectively) was measured using a SpectraMax® Plus M2 plate reader from Molecular Devices (Sunnyvale, Calif.).
To further confirm that rhNaglu could hydrolyze UDP-GlcNAc, we investigated whether UDP-GlcNAc inhibited the hydrolysis by rhNaglu of the fluorescent substrate 4MU-GlcNAc (4-methylumbelliferyl-N-acetyl-α-D-glucosaminide) in a Naglu activity assay. Briefly, UDP-GlcNAc, as well as GlcNAc, UDP-GalNAc and Glucosamine, were added to the Naglu activity assay at 0.0625, 0.25, 1, 4 and 8 mM concentrations. The fluorescence emitted from these samples was compared to control samples only including rhNaglu and 4MU-GlcNAc.

For assay [3], the target named is T1, rhNaglu. Kind of assay: Naglu substrate analysis: hydrolysis of UDP-sugars by rhNaglu, PAD-HPLC. The following applies: 0.8 mM UDP-sugar, rhNaglu 2.6 to 2,000 μg/ml, Tris pH 7.15, 37° C., 1 hour. On the procedure: Recombinant human Naglu was co-incubated with uridine diphosphate N-acetylglucosamine (UDP-GlcNAc) or uridine diphosphate N-acetyl galactosamine (UDP-GalNAc). UDP-GlcNAc, GlcNAc (N-acetylglucosamine) and UDP-GalNAc were detected using PAD-HPLC (Pulsed Amperometric Detection-High Pressure Liquid Chromatography) that was modified after Chavaroche et al. 2011.
Recombinant human Naglu was dialyzed into Tris buffer (40 mM Tris pH 7.15, 100 mM NaCl, 4 mM MgCl2, and 4 mM MnCl2) and concentrated with VivaSpin® sample concentrators having a 30 kDa cut-off (Viva Products, Inc., Littleton, Mass.). […]
Samples were then subjected to centrifugation at 10,000 rpm, and the resulting supernatants were loaded on PA10 columns and detected by PAD-HPLC (Pulsed Amperometric Detection-High Pressure Liquid Chromatography) (Dionex ICS-3000 Ion Chromatography System (Thermo Fisher Scientific, Inc., Sunnyvale, Calif.)). […] The peak areas for the eluted UDP-GlcNAc were measured, and the reductions of the area under the curve (AUC) in response to increased concentrations of rhNaglu were determined (FIG. 1A). A new peak at 10.7 minutes was detected on the chromatograms of samples treated with concentrations of rhNaglu of 23.4 μg/ml and above. […] The peak areas for the eluted GlcNAc were measured, and the increases of the AUC in response to increased concentrations of rhNaglu were determined (FIG. 1B). […]

In the case of “uridine diphosphate N-acetylglucosamine [UDP-GlcNAc]”, the “Km of hydrolysis by rhNaglu” value in assay [1] is “milimolar range”. The “inhibition of rhNaglu activity toward 4MU-GlcNAc” value in assay [2] was “Inhibition”. Moreover, the “hydrolysis by rhNaglu” value in assay [3] was “hydrolyses”.
